From publication PMC10017027, “Design and Synthesis of Novel HIV-1 NNRTIs with Bicyclic Cores and with Improved Physicochemical Properties” (Journal of Medicinal Chemistry, 2023)
Values after ≈ are worked out from the molar mass of the structure shown. Read-outs that look alike come from different tables or passages of the source.

Key:
HIV-1 (IIIB strain) = experiment: MT-4 antiviral cytopathic effect assay, HIV-1 IIIB; assay type: cell-based; conditions: HIV-1 IIIB, WT
Protocol: (§1) The prepared compounds were tested for their anti-HIV-1 activity (Table 1). A viral cytopathic effect assay in MT-4 cells with HIV-1 IIIB virus was used to determine compound potency (EC50, 50% cell viability) in protecting virus induced cell killing. Compound cytotoxicity was assessed in MT-4 cells in the absence of virus (CC50, 50% cytotoxicity).
(§2) Compounds were tested in a high-throughput 384-well assay format for their ability to inhibit the virus replication-induced cytopathic effect in MT-4 cell cultures acutely infected with HIV-1 (IIIB strain), HXB2, HXB2-K103N, and HXB2-Y181C. Compounds were serially diluted (1:3) in DMSO on 384-well polypropylene plates and further diluted 200-fold into complete RPMI media (10% FBS, 1% P/S) using Biotek Micro Flow and an Agilent ECHO acoustic dispenser. Each plate contained up to eight test compounds, with negative (no drug control) and 5 μM AZT positive controls. MT-4 cells were further diluted in complete RPMI media and added to each plate using a Micro-Flo dispenser. After five days of incubation in a humidified and temperature-controlled incubator (37 °C), Cell Titer Glo (Promega) was added to the assay plates to quantify the amount of […]. EC50 and CC50 values were defined as the compound concentration that causes a 50% decrease in luminescence signal and were calculated using a sigmoidal dose-response model to generate curve fits.

in vitro = assay type: cell-based; conditions: human
Protocol: (§3) The prepared compounds were tested for their anti-HIV-1 activity (Table 1). A viral cytopathic effect assay in MT-4 cells with HIV-1 IIIB virus was used to determine compound potency (EC50, 50% cell viability) in protecting virus induced cell killing. Compound cytotoxicity was assessed in MT-4 cells in the absence of virus (CC50, 50% cytotoxicity). […] ETV contains bromo and amino substitutions on the DAPY core. […] Likely, with the smaller cyano arm I in 1, 3, and 5, the cores could be further elaborated to optimize the compound position in the pocket and to improve potency.
as §2

HIV-1 HXB2 = experiment: MT-4 antiviral cytopathic effect assay, HXB2 wild-type virus; assay type: cell-based
Protocol: as §1, §2

HIV-1 HXB2 K103N variant = experiment: MT-4 antiviral cytopathic effect assay, HXB2-K103N; assay type: cell-based; conditions: for EC50: Human immunodeficiency virus 1, HXB2, read-out: EC50 K103N
Protocol: as §3, §2

HIV-1 HXB2 Y181C variant = experiment: MT-4 antiviral cytopathic effect assay, HXB2-Y181C; assay type: cell-based; conditions: for EC50: Human immunodeficiency virus 1, HXB2, read-out: EC50 Y181C
Protocol: as §3, §2

[1] = Solubility assessment, shake-flask method; assay type: physicochemical; conditions: for solubility: shake-flask; for HCl sol / PBS sol / solubility thermodynamic: supplement CSV
Protocol: Compound solubility was measured at Analiza (Cleveland, OH) by the standard shake-flask method at pH 1.2 and 7.4 and quantitated by HPLC-UV.

[2] = MDCK permeability assay (A to B); assay type: in vitro ADME, Canine; conditions: dog, MDCK
Source text: (§4) Compounds were further tested in a Madin–Darby Canine Kidney (MDCK) assay to evaluate their potential for oral absorption. […] Additionally, there was no trend for better permeability when comparing arm I versus arm II when matched with the same core. The size of the B ring had the greatest influence on Papp with the trend being five-membered > six-membered > seven-membered rings (Table 1).
(§5) cMdr1-KO cells were maintained in Dulbecco’s modified Eagle’s medium (DMEM) with sodium pyruvate and GlutaMax, supplemented with 1% Pen/Strep and 10% fetal bovine serum in an incubator set at 37 °C, 90% humidity, and 5% CO2. MDCKII- cMdr1-KO cells were grown to confluence over 3 days on 96-well PET plates with 1 μm pore size, polyester membrane (Corning 3392). Experiments were run using HBSS donor buffer from Invitrogen containing an additional 10 mM HEPES, 15 mM glucose, and 0.1% BSA adjusted to pH 7.4. The receiver well had HBSS buffer supplemented with 1% BSA, 10 mM HEPES, 15 mM glucose, and the pH was adjusted to 7.4. TEER values were read to test membrane integrity at the beginning of the assay. The experiment was started by the addition of dosing solutions containing test compounds. Samples were taken from the donor compartment at 0/120 min and from the receiver compartment at 120 min. Each compound was tested in two separate replicate wells. All samples were immediately collected in a 72:8:20 MeCN/MeOH:H2O mix to precipitate protein and stabilize the test compounds. Cells were dosed on the apical side to determine forward (A to B) permeability. To test for non-specific binding and compound instability, the total amount of drug was quantified at the end of the experiment and compared to the material present in the original dosing solution as a percentage of recovery. Samples were analyzed by RF-QToF.

[3] = Predicted clearance in human liver microsomes; assay type: in vitro ADME; conditions: pH 7.4, 1 μM compound, read-out: HLM CLint, pred (converted)
Protocol: Next, microsome stability was profiled in purified human liver microsomes (HLM).
Metabolic stability of compounds was assessed using HLM (Corning cat. 457117).[52] In this assay, 10 nL compounds at a concentration of 1 mM in 100% DMSO are dispensed into 384-well polypropylene plates using the Echo 550 acoustic liquid dispenser (Labcyte). Each plate contains 384 wells with a single test compound in each well.
A solution of HLM at 2 mg/mL in 100 mM K2HPO4/KH2PO4 pH 7.4 with 0.0225 mg/mL Alamethicin from Trichoderma viride (Sigma-Aldrich cat. A4665-10MG) was incubated on ice for 15 min. 5 μL of this solution was added to individual wells following 15 min incubation at room temperature; and supplemented with 5 μL NADPH Regenerating Solution of cofactors (Corning Gentest UGT Reaction Mix solutions A and B, cat. 451200 and 451220) containing 100 mM K2HPO4/KH2PO4 pH 7.4, 2.6 mM NADP^+, 6.6 mM glucose-6-phosphate, 6.6 mM MgCl2, 0.8 U/mL glucose-6-phosphate dehydrogenase, 0.1 mM sodium citrate, and 6.8 mM uridine diphosphate-glucuronic acid. The final concentration of analyte compounds at the beginning of the reactions was 1 μM. The reactions were incubated at 37 °C, and time points of 0, 5, 15, 30, 40, 50, 60, and 70 min were collected for further analysis. Background data were collected using reactions without analyte compounds.
Upon collection of the reaction time points, samples were quenched at the set time points with 30 μL of a solution of 72% acetonitrile, 8% methanol, 0.1% formic acid, 19.9% water, and labetalol as an internal standard (IS) at a concentration of 650 nM. Reaction plates were span in a centrifuge at a speed of 4000 rcf for 30 min and 4 °C, following a dilution of the 10 μL quenched reaction into 40 μL de-ionized water, yielding assay plates.
Samples were analyzed by a solid-phase extraction coupled with a quadrupole time-of-flight mass spectrometer, using an Agilent QToF 6530 RapidFire 360 system with C4 type A solid state cartridges. Analysis was performed in either positive or negative ionization modes. Mobile phases contained 0.1% formic acid in water for loading analytes onto solid state extraction cartridges, and 0.1% formic acid in acetonitrile for elution into the mass spectrometer in positive ionization mode, or 0.1% acetic acid in water for loading and 0.1% acetic acid in acetonitrile for extraction in negative ionization mode. Peak-area ratios of integrated counts for individual compounds to IS were plotted as a semi-logarithmic chart of log versus time. Initial, linear portion of decay was fitted to a linear regression equation to derive the half-time of a compound decay.
Pharmacological parameters for an analyte compound metabolism were calculated using the equations described in Table S2.
Table S2. Pharmacological parameters for an analyte compound metabolism were
calculated using the following equations:
Intrinsic Clearance (in Cl = ln 2
int, in vitro T1/2 ∗ Conc
Intrinsic Clearance Cl = Clint, in vitro ∗ Liver Mass ∗ Yield
Predicted Hepatic Cl = Clint ∗ QH
QH (Hepatic Blood Flow) = 1.3 L/hr/kg

MDCKII-cMdr1-KO cells = experiment: MDCK permeability assay (A to B); assay type: in vitro ADME, Canine; conditions: in words
Source text: as §4, §5

E138K = conditions: cell culture; cited from earlier work
[4] = Human immunodeficiency virus 1, IIIB, MT4, protects 50% of MT-4 cells against HIV-1-induced cell killing, read-out: EC50 MT4
[5] = Human immunodeficiency virus 1, MT4, HIV-1 HXB2 wild-type, MT-4 cells, read-out: EC50 HXB2
[6] = fold change: ratio of potency against HXB2 K103N and parental HXB2
[7] = supplement CSV, fold change vs HXB2
[8] = fold change: ratio of potency against HXB2 Y181C and parental HXB2
[9] = HCl, pH 1.2, read-out: solubility HCl
[10] = phosphate-buffered saline, pH 7.4, read-out: solubility PBS
[11] = apparent permeability coefficient, A to B, pH 7.4

| SMILES | EC50 (HIV-1 (IIIB strain); [4]) [nM] | EC50 (HIV-1 HXB2; [5]) [nM] | EC50 (HIV-1 HXB2 K103N variant) [nM] | K103N (FC) (HIV-1 HXB2 K103N variant; [6]) | K103N (FC) (HIV-1 HXB2 K103N variant; [7]) | EC50 (HIV-1 HXB2 Y181C variant) [nM] | Y181C (FC) (HIV-1 HXB2 Y181C variant; [8]) | Y181C (FC) (HIV-1 HXB2 Y181C variant; [7]) | solubility [1, 9] [µM] | solubility [1, 10] [µM] | HCl sol [1] [µM] | PBS sol [1] [µM] | Papp A→B at 120 min ([2]; supplement CSV) [×10⁻⁶ cm/s] | Papp A→B at 120 min [2, 11] [×10⁻⁶ cm/s] | CLint scaled at 1.167 h, 1 µM [3] [mL/min/kg] | CC50 at 120 h (in vitro) [nM] | permeability (Papp) in the MDCK assay (MDCKII-cMdr1-KO cells) | resistance conferred by E138K (E138K) | further results |
| --- | --- | --- | --- | --- | --- | --- | --- | --- | --- | --- | --- | --- | --- | --- | --- | --- | --- | --- | --- |
| Cc1cc(C#N)cc(C)c1N1CCC(=O)Nc2cnc(Nc3ccc(C#N)cc3)nc21 [Compound 5, 4-{2-[(4-Cyanophenyl)amino]-6-oxo-5H,6H,7H,8H,9H-pyrimido[4,5-b][1,4]diazepin-9-yl}-3,5-dimethylbenzonitrile] | 43.4 | 29.4 | 70.7 | 2.4 | 2.4 | 198 | 6.7 | 6.7 | 87.3 (≈ 35.7 µg/mL) | 1.4 (≈ 0.573 µg/mL) | 87.3 | 1.4 | 3.5 | 3.5 | 15.5 |  |  |  | CC50 at 5 days (in vitro): > 50000 nM |
| Cc1cc(/C=C/C#N)cc(C)c1N1CCC(=O)Nc2cnc(Nc3ccc(C#N)cc3)nc21 [Compound 6, 4-[(9-{4-[(1E)-2-Cyanoeth-1-en-1-yl]-2,6-dimethylphenyl}-6-oxo-5H,6H,7H,8H,9H-pyrimido[4,5-b][1,4]diazepin-2-yl)amino]benzonitrile] | 2.6 to 3 | 2.8 | 4.8 | 1.7 | 1.7 | 18.3 | 6.5 | 6.5 | 63.3 (≈ 27.6 µg/mL) | 2.3 (≈ 1 µg/mL) | 63.3 | 2.3 | 3.1 | 3.1 | 12 | 25800 |  |  | EC50 (HIV-1 (IIIB strain); protects 50% of MT-4 cells against HIV-1-induced cell killing, read-out: EC50 MT4): 3 nM |
| Cc1cc(C#N)cc(C)c1Oc1nc(Nc2ccc(C#N)cc2)nc(N)c1Br [ETV, etravirine, reference compound] |  |  | 2.3 | 0.9 | 0.9 | 11.1 | 4.8 | 4.8 | < 1 | < 1 | <1 | <1 | 3.8 | 3.8 | 4.17 | 7300 | moderate | 2–3 fold | EC50 (HIV-1 (IIIB strain); Human immunodeficiency virus 1, MT4, read-out: EC50 MT4, protects 50% of MT-4 cells against HIV-1-induced cell killing): 2.4 nM; EC50 (HIV-1 HXB2; Human immunodeficiency virus 1, HXB2, MT4, read-out: EC50 HXB2): 2.5 nM |
| Cc1cc(/C=C/C#N)cc(C)c1Nc1ccnc(Nc2ccc(C#N)cc2)n1 [RPV, rilpivirine, reference compound] |  |  | 1.5 | 1.3 | 1.3 | 3.8 | 3.2 | 3.2 | > 100 | < 1 |  |  | 4.6 | 4.6 | 14.3 | 6500 | moderate | 2–3 fold | solubility thermodynamic ([1]; HCl, pH 1.2, read-out: HCl sol): > 100 µM; solubility thermodynamic ([1]; PBS, pH 7.4, aqueous buffer, read-out: PBS sol): < 1 µM |
